Measured values published in US20230265151A1, “GIP/GLP1 CO-AGONIST COMPOUNDS” (priority 2020, published 2023).
Where two headings read alike, the source gives them in different places.

Legend:
Format in all cases: cell-based
hGIPR = target: T1, hGIPR (Homo sapiens, UniProt P48546); assay: Functional cAMP formation (HTRF) in HEK-293 clonal cells expressing hGIPR, 0.1% bovine casein, without or with 1.0% human serum albumin; details: for EC50: geometric mean
T1 construct: expressed in transfected cells
T1 sequence (P48546 22-466): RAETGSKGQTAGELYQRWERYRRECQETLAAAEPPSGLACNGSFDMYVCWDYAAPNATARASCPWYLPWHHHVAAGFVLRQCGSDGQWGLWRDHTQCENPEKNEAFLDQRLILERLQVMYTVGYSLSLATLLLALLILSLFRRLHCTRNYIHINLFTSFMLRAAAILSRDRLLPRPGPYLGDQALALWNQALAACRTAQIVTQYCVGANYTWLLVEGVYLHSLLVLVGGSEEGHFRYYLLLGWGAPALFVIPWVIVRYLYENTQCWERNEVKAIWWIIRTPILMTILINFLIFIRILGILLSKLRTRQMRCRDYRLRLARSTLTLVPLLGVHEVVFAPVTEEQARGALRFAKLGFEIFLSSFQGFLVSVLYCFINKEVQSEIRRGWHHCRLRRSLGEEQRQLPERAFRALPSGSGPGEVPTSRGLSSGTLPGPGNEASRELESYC
Summary of the method: (§1)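 Cells were stimulated with peptide for 30 min at 37° C, then lysed in buffer carrying cAMP-d2 and anti-cAMP Eu3+-cryptate for a competitive HTRF read after at least 60 min at room temperature. The 665/620 nm ratio was converted to nM cAMP against a standard curve.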

hGCGR = target: T2, hGCGR (Homo sapiens, UniProt P47871); assay: Functional cAMP formation (HTRF) in HEK-293 clonal cells expressing hGCGR, 0.1% bovine casein, without or with 1.0% human serum albumin; details: geometric mean
T2 construct: expressed in transfected cells
T2 sequence (P47871 26-477): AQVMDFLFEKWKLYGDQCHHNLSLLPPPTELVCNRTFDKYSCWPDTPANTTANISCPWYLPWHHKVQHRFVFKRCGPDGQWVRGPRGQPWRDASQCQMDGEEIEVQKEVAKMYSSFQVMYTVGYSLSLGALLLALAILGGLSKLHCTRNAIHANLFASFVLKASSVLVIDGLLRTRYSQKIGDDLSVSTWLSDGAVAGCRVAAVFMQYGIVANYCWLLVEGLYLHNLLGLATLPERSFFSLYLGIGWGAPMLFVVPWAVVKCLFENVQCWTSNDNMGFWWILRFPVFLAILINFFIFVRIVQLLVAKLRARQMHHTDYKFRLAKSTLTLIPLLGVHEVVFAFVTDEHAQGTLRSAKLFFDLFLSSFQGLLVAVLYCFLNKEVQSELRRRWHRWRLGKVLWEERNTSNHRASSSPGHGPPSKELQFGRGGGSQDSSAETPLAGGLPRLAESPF
Summary of the method: as §1

hGLP-1R = hGLP-1R (Homo sapiens, UniProt P43220); assay: Functional cAMP formation (HTRF) in HEK-293 clonal cells expressing hGLP-1R, 0.1% bovine casein, without or with 1.0% human serum albumin; design: expressed in transfected cells; details: for EC50: geometric mean
Sequence of hGLP-1R (P43220 24-463): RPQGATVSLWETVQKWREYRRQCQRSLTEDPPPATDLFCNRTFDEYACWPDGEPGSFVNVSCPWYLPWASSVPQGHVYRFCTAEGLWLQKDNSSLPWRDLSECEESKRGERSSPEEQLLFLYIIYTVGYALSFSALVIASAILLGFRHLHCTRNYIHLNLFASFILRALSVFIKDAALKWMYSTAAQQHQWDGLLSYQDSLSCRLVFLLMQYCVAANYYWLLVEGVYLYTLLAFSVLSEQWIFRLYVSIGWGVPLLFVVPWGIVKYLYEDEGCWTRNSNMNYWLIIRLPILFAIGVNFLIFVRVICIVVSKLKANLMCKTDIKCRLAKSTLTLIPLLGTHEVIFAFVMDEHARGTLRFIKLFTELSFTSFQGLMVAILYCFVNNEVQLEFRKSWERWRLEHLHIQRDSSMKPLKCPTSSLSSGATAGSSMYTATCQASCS
Summary of the method: as §1

[1] = 0.1% bovine casein and 1.0% human serum albumin, 37° C., read-out: hGIPR EC50, nM (SEM, n)
[2] = HEK293, 0.1% bovine casein and 1.0% human serum albumin, 37° C., percent of maximal response to GIP(1-42)NH2, read-out: hGIPR Emax, % ± SEM
[3] = 0.1% bovine casein and 1.0% human serum albumin, 37° C., read-out: hGCGR EC50, nM (SEM, n)
[4] = cAMP, incubated at 37° C., 0.1% bovine casein (no human serum albumin), read-out: hGCGR EC50, nM (SEM, n)
[5] = 0.1% bovine casein and 1.0% human serum albumin, 37° C., read-out: hGLP-1R EC50, nM (SEM, n)
[6] = HEK293, 0.1% bovine casein and 1.0% human serum albumin, 37° C., percent of maximal response to GLP-1(7-36)NH2, read-out: hGLP-1R Emax, % ± SEM
[7] = HEK293, percent of maximal response to GLP-1(7-36)NH2, 37° C., 0.1% bovine casein, arithmetic mean, read-out: hGLP-1R Emax, % ± SEM
[8] = HEK293, percent of maximal response to GIP(1-42)NH2, 37° C., 0.1% bovine casein, arithmetic mean, read-out: hGIPR Emax, % ± SEM

Structure (SMILES) | EC50 (hGIPR; [1]) [nM] | Emax (hGIPR; [2]) [%] | EC50 (hGIPR; cAMP, incubated at 37° C., 0.1% bovine casein (no human serum albumin), read-out: hGIPR EC50, nM (SEM, n)) [nM] | EC50 (hGCGR; [3]) [nM] | EC50 (hGCGR; [4]) [nM] | EC50 (hGLP-1R; [5]) [nM] | Emax (hGLP-1R; [6]) [%] | Emax (hGLP-1R; [7]) [%] | EC50 (hGLP-1R; cAMP, incubated at 37° C., 0.1% bovine casein (no human serum albumin), read-out: hGLP-1R EC50, nM (SEM, n)) [nM] | Emax (hGIPR; [8]) [%] | Emax (hGIPR; HEK293, read-out: hGIPR Emax, % ± SEM, 0.1% bovine casein and 1.0% human serum albumin, 37° C., percent of maximal response to GIP(1-42)NH2) [%] | EC50 (hGIPR; hGIPR EC50, nM (SEM, n), 0.1% bovine casein and 1.0% human serum albumin, 37° C.) [nM] | EC50 (hGIPR; hGIPR EC50, nM (SEM, n), cAMP, incubated at 37° C., 0.1% bovine casein (no human serum albumin)) [nM] | EC50 (hGCGR; hGCGR EC50, nM (SEM, n), 0.1% bovine casein and 1.0% human serum albumin, 37° C.) [nM] | EC50 (hGCGR; hGCGR EC50, nM (SEM, n), cAMP, incubated at 37° C., 0.1% bovine casein (no human serum albumin)) [nM] | Emax (hGLP-1R; HEK293, read-out: hGLP-1R Emax, % ± SEM, percent of maximal response to GLP-1(7-36)NH2, 37° C., 0.1% bovine casein, arithmetic mean) [%] | EC50 (hGLP-1R; hGLP-1R EC50, nM (SEM, n), 0.1% bovine casein and 1.0% human serum albumin, 37° C.) [nM]
CC[C@H](C)[C@H](NC(=O)[C@H](CC(C)C)NC(=O)[C@](C)(Cc1ccc(O)cc1)NC(=O)[C@@H](CCC(=O)O)NC(=O)[C@@H](NC(=O)[C@H](Cc1ccccc1)NC(=O)[C@H](CCC(=O)O)NC(=O)C(C)(C)NC(=O)[C@H](CCC(N)=O)NC(=O)[C@H](C)NC(=O)[C@H](CCCCNC(=O)COCCOCCNC(=O)CC[C@H](NC(=O)CCCc1ccc(C(C)(C)C)cc1)C(=O)O)NC(=O)[C@H](CCCN)NC(=O)[C@H](CC(=O)O)NC(=O)[C@H](CC(C)C)NC(=O)[C@](C)(CC(C)C)NC(=O)[C@@H](NC(=O)[C@H](CO)NC(=O)[C@H](Cc1ccncc1)NC(=O)[C@H](CC(=O)O)NC(=O)[C@H](CO)NC(=O)[C@@H](NC(=O)[C@](C)(Cc1ccccc1F)NC(=O)[C@@H](NC(=O)CNC(=O)[C@H](CCC(=O)O)NC(=O)C(C)(C)NC(=O)[C@@H](N)Cc1ccc(O)cc1)[C@@H](C)O)[C@@H](C)O)[C@@H](C)CC)[C@@H](C)CC)C(=O)N[C@@H](CCC(=O)O)C(=O)NCC(=O)NCC(=O)N1CCC[C@H]1C(=O)N[C@@H](CO)C(=O)N[C@@H](CO)C(=O)NCC(=O)N[C@@H](C)C(=O)N1CCC[C@H]1C(=O)N1CCC[C@H]1C(=O)N1CCC[C@H]1C(=O)N[C@@H](CO)C(=O)N[C@@H](CCCCNC(=O)COCCOCCNC(=O)CC[C@H](NC(=O)CCCc1ccc(C(C)(C)C)cc1)C(=O)O)C(N)=O [Example 209] | 0.173 | 90.8 | 0.0133 | > 9950 | > 9950 | 1.16 | 109 | 100 | 0.235 | – | – | – | – | – | – | – | –
CC[C@H](C)[C@H](NC(=O)[C@H](CC(C)C)NC(=O)[C@](C)(Cc1ccc(O)cc1)NC(=O)[C@@H](CCC(=O)O)NC(=O)[C@@H](NC(=O)[C@H](Cc1ccccc1)NC(=O)[C@H](CCC(=O)O)NC(=O)C(C)(C)NC(=O)[C@H](CCC(N)=O)NC(=O)[C@H](C)NC(=O)[C@H](CCCCNC(=O)COCCOCCNC(=O)COCCOCCNC(=O)CCCCCCCCCCCCC(=O)O)NC(=O)[C@H](CCCN)NC(=O)[C@H](CC(=O)O)NC(=O)[C@H](CC(C)C)NC(=O)[C@](C)(CC(C)C)NC(=O)[C@@H](NC(=O)[C@H](CO)NC(=O)[C@H](Cc1ccncc1)NC(=O)[C@H](CC(=O)O)NC(=O)[C@H](CO)NC(=O)[C@@H](NC(=O)[C@](C)(Cc1ccccc1F)NC(=O)[C@@H](NC(=O)CNC(=O)[C@H](CCC(=O)O)NC(=O)C(C)(C)NC(=O)[C@@H](N)Cc1ccc(O)cc1)[C@@H](C)O)[C@@H](C)O)[C@@H](C)CC)[C@@H](C)CC)C(=O)N[C@@H](CCCCNC(=O)COCCOCCNC(=O)COCCOCCNC(=O)CCCCCCCCCCCCC(=O)O)C(=O)NCC(=O)NCC(=O)N1CCC[C@H]1C(=O)N[C@@H](CO)C(=O)N[C@@H](CO)C(=O)NCC(=O)N[C@@H](C)C(=O)N1CCC[C@H]1C(=O)N1CCC[C@H]1C(=O)N1CCC[C@H]1C(=O)N[C@@H](CO)C(N)=O [Example 210] | 0.44 | 68.1 | – | > 9950 | > 9950 | 8.86 | – | – | – | 92.1 | – | – | – | – | – | – | –
CC[C@H](C)[C@H](NC(=O)[C@H](CC(C)C)NC(=O)[C@](C)(Cc1ccc(O)cc1)NC(=O)[C@@H](CCC(=O)O)NC(=O)[C@@H](NC(=O)[C@H](Cc1ccccc1)NC(=O)[C@H](CCC(=O)O)NC(=O)C(C)(C)NC(=O)[C@H](CCC(N)=O)NC(=O)[C@H](C)NC(=O)[C@H](CCCCNC(=O)COCCOCCNC(=O)COCCOCCNC(=O)CC[C@H](NC(=O)CCCCCCCCCCCCC(=O)O)C(=O)O)NC(=O)[C@H](CCCN)NC(=O)[C@H](CC(=O)O)NC(=O)[C@H](CC(C)C)NC(=O)[C@](C)(CC(C)C)NC(=O)[C@@H](NC(=O)C1(NC(=O)[C@H](Cc2ccncc2)NC(=O)[C@H](CC(=O)O)NC(=O)[C@H](CO)NC(=O)[C@@H](NC(=O)[C@](C)(Cc2ccccc2F)NC(=O)[C@@H](NC(=O)CNC(=O)[C@H](CCC(=O)O)NC(=O)C(C)(C)NC(=O)[C@@H](N)Cc2ccc(O)cc2)[C@@H](C)O)[C@@H](C)O)CCCC1)[C@@H](C)CC)[C@@H](C)CC)C(=O)N[C@@H](CCC(=O)O)C(=O)NCC(=O)NCC(=O)N[C@@H](CCCCNC(=O)COCCOCCNC(=O)COCCOCCNC(=O)CC[C@H](NC(=O)CCCCCCCCCCCCC(=O)O)C(=O)O)C(=O)N[C@@H](CO)C(=O)N[C@@H](CO)C(=O)NCC(=O)N[C@@H](C)C(=O)N1CCC[C@H]1C(=O)N1CCC[C@H]1C(=O)N1CCC[C@H]1C(=O)N[C@@H](CO)C(N)=O [Example 211] | 2.16 | 64.5 | – | > 9950 | > 9950 | – | 99 | 93.1 | – | 91.6 | – | – | – | – | – | – | –
CC[C@H](C)[C@H](NC(=O)[C@H](CC(C)C)NC(=O)[C@](C)(Cc1ccc(O)cc1)NC(=O)[C@@H](CCC(=O)O)NC(=O)[C@@H](NC(=O)[C@H](Cc1ccccc1)NC(=O)[C@H](CCC(=O)O)NC(=O)C(C)(C)NC(=O)[C@H](CCC(N)=O)NC(=O)[C@H](C)NC(=O)[C@H](CCCCNC(=O)COCCOCCNC(=O)COCCOCCNC(=O)CC[C@H](NC(=O)CCCCCCCCCCCCC(=O)O)C(=O)O)NC(=O)[C@H](CCCN)NC(=O)[C@H](CC(=O)O)NC(=O)[C@H](CC(C)C)NC(=O)[C@](C)(CC(C)C)NC(=O)[C@@H](NC(=O)[C@](C)(CO)NC(=O)[C@H](Cc1ccncc1)NC(=O)[C@H](CC(=O)O)NC(=O)[C@H](CO)NC(=O)[C@@H](NC(=O)[C@](C)(Cc1ccccc1F)NC(=O)[C@@H](NC(=O)CNC(=O)[C@H](CCC(=O)O)NC(=O)C(C)(C)NC(=O)[C@@H](N)Cc1ccc(O)cc1)[C@@H](C)O)[C@@H](C)O)[C@@H](C)CC)[C@@H](C)CC)C(=O)N[C@@H](CCC(=O)O)C(=O)NCC(=O)NCC(=O)N[C@@H](CCCCNC(=O)COCCOCCNC(=O)COCCOCCNC(=O)CC[C@H](NC(=O)CCCCCCCCCCCCC(=O)O)C(=O)O)C(=O)N[C@@H](CO)C(=O)N[C@@H](CO)C(=O)NCC(=O)N[C@@H](C)C(=O)N1CCC[C@H]1C(=O)N1CCC[C@H]1C(=O)N1CCC[C@H]1C(=O)N[C@@H](CO)C(N)=O [Example 213] | – | 95.6 | – | > 9950 | > 9950 | – | – | 94.8 | – | 92 | – | – | – | – | – | – | –
CC[C@H](C)[C@H](NC(=O)[C@H](CC(C)C)NC(=O)[C@](C)(Cc1ccc(O)cc1)NC(=O)[C@H](CCCCNC(=O)COCCOCCNC(=O)COCCOCCNC(=O)CC[C@H](NC(=O)CCCCCCCCCCCCC(=O)O)C(=O)O)NC(=O)[C@@H](NC(=O)[C@H](Cc1ccccc1)NC(=O)[C@H](CCC(=O)O)NC(=O)C(C)(C)NC(=O)[C@H](CCC(N)=O)NC(=O)[C@H](C)NC(=O)[C@H](CCCCNC(=O)COCCOCCNC(=O)COCCOCCNC(=O)CC[C@H](NC(=O)CCCCCCCCCCCCC(=O)O)C(=O)O)NC(=O)[C@H](CCCN)NC(=O)[C@H](CC(=O)O)NC(=O)[C@H](CC(C)C)NC(=O)[C@](C)(CC(C)C)NC(=O)[C@@H](NC(=O)[C@](C)(CO)NC(=O)[C@H](Cc1ccncc1)NC(=O)[C@H](CC(=O)O)NC(=O)[C@H](CO)NC(=O)[C@@H](NC(=O)[C@](C)(Cc1ccccc1F)NC(=O)[C@@H](NC(=O)CNC(=O)[C@H](CCC(=O)O)NC(=O)C(C)(C)NC(=O)[C@@H](N)Cc1ccc(O)cc1)[C@@H](C)O)[C@@H](C)O)[C@@H](C)CC)[C@@H](C)CC)C(=O)N[C@@H](CCC(=O)O)C(=O)NCC(=O)NCC(=O)N1CCC[C@H]1C(=O)N[C@@H](CO)C(=O)N[C@@H](CO)C(=O)NCC(=O)N[C@@H](C)C(=O)N1CCC[C@H]1C(=O)N1CCC[C@H]1C(=O)N1CCC[C@H]1C(=O)N[C@@H](CO)C(N)=O [Example 214] | – | – | – | – | – | – | – | – | – | – | 80.4 | 2.03 | 0.0351 | > 9950 | > 9950 | 93.2 | 17.9
